Measurements: patent publication US6476043B1, “Use of camptothecin derivatives, with reduced gastrointestinal toxicity” (Aventis Pharma S.A., priority 1998, dated 2002)

How the values were obtained:
[1] = mice, CPT-11 40 mg/kg i.v.; CPT-11 group versus CPT-11/NaCl group, days 1 and 5
CD1 male mice = test: Study I: protective effect of oral sodium chloride solution on the intestinal toxicity of intravenous CPT-11; assay type: in vivo
Protocol: The body weight is recorded on days 1, 6, 11 and 13. […] The complete gastrointestinal tract is removed from all of the mice. The gastrointestinal tract of the mice which survived to the end of the observation period is subjected to examination under a microscope.

[2] = tested on: mammary adenocarcinoma MA16/C; test: Study IV: effect of oral sodium chloride solution on the antitumour activity of intravenous CPT-11
Source text: A Log tumour cell kill value of 0.7 corresponds to minimum activity, while a value greater than 2.8 corresponds to a high level of activity.

## CCc1c2c(nc3ccc(O)cc13)-c1cc3c(c(=O)n1C2)COC(=O)[C@]3(O)CC [SN-38]
[1]
  areas under the curve (AUC): identical
  maximum plasma concentrations (Cmax): identical

## CCc1c2c(nc3ccc(OC(=O)N4CCC(N5CCCCC5)CC4)cc13)-c1cc3c(c(=O)n1C2)COC(=O)[C@]3(O)CC [CPT-11, irinotecan]
CD1 male mice; CPT-11 40 mg/kg i.v. days 6 to 10, CPT-11 group compared with CPT-11/NaCl group
  loss of body weight: greater
CD1 male mice; CPT-11 40 mg/kg i.v. days 6 to 10, autopsy day 13, small intestine
  severity of microscopic intestinal lesions (loss of crypts, shortening of villi): moderate to pronounced
CD1 male mice; CPT-11 40 mg/kg i.v. days 6 to 10, observed on days 6 and 7, dead/total mice
  mortality linked to the administration of CPT-11: 7/15
[2]; C3H/HeN female mice carrying MA16/C, i.v. for 5 consecutive days
  total cumulative dose at the maximum nontoxic dose: 118 mg/kg
[2]; at the maximum nontoxic dose, day 11 (CPT-11 group), day 12 (CPT-11/NaCl group)
  maximum loss of body weight: 10%
[2]; mammary adenocarcinoma MA16/C s.c. in C3H/HeN female mice, at the maximum nontoxic dose
  Log cell kill value: 1.7
Female Beagle dogs; CPT-11 20 mg/kg single i.v. dose on day 6, autopsy day 9
  severity of gastrointestinal lesions (degeneration of the mucosa): moderate to pronounced
Female Beagle dogs; CPT-11 20 mg/kg single i.v. dose, CPT-11 group compared with CPT-11/NaCl group
  redness on the mucosa of the large intestine (frequency): more common
[1]
  areas under the curve (AUC): identical
  maximum plasma concentrations (Cmax): identical
